Measurements as given in patent publication US9040498B2, “1,2,3-Triazolyl purine derivatives” (RESEARCH FOUNDATION OF THE CITY UNIVERSITY OF NEW YORK, priority 2012, dated 2015).
Like-named read-outs stand apart in the source and are kept apart here.

Experiments:
[1] = test system: ovarian (1A9) cancer cell line; assay: GI50 against ovarian cancer cell line 1A9; details: read-out: GI50 1A9
CMV AD-169 strain = assay: Anti-CMV activity in HEL cell cultures, AD-169 strain; type: cell-based, cytomegalovirus; details: reduce virus plaque formation by 50%
[2] = test system: paclitaxel-resistant (PTX22) ovarian cancer cell line; assay: GI50 against paclitaxel-resistant ovarian cancer cell line PTX22; details: read-out: GI50 PTX22
HEL cell [3] = assay: HEL cell effects: cell morphology (minimum cytotoxic concentration); details: minimum cytotoxic concentration causing microscopically detectable alteration of cell morphology
[4] = test system: p53KO HCT116 cancer cell line; assay: GI50 against p53KO HCT116 cancer cell line; details: read-out: GI50 p53KO
[5] = test system: paclitaxel-resistant (PTX10) ovarian cancer cell line; assay: GI50 against paclitaxel-resistant ovarian cancer cell line PTX10
CMV Davis strain = assay: Anti-CMV activity in HEL cell cultures, Davis strain; type: cell-based, cytomegalovirus; details: reduce virus plaque formation by 50%
cytomegalovirus (CMV) = assay: Anti-CMV activity in HEL cells (both strains); type: cell-based; details: for anti-CMV activity (in words): HEL cells
HEL cell [6] = assay: HEL cell effects: cell growth; details: read-out: HEL cell effects cell growth (IC50); concentration required to reduce cell growth by 50%
[7] = test system: colorectal (HCT116) cancer cell line; assay: GI50 against colorectal cancer cell line HCT116
[8] = test system: murine leukemia L1210, human lymphocyte CEM, and HeLa cells; assay: Cytostatic activity against L1210, CEM and HeLa cells; type: cell-based
Description: The cytostatic effects of the test compounds on murine leukemia cells (L1210), human T-lymphocyte cells (CEM) and human cervix carcinoma cells (HeLa) were evaluated as follows: an appropriate number of cells suspended in growth medium were allowed to proliferate in 200-μL-wells of 96-well-microtiter plates in the presence of variable amounts of test compounds at 37° C. in a humidified CO2-controlled atmosphere. After 48 h (L1210), 72 h (CEM) or 96 h (HeLa), the number of cells was counted in a Coulter counter. The IC50 value is defined as the concentration required to inhibit cell proliferation by 50%.

[9] = HEL cell cultures, virus input 100 PFU
[10] = paclitaxel-resistant ovarian PTX22, four days
[11] = read-out: GI50 PTX10, paclitaxel-resistant ovarian PTX10, four days
[12] = read-out: GI50 HCT116, colorectal HCT116, four days

Row | Molecule | GI50 ([1]; ovarian 1A9, four days) [µM] | EC50 (CMV AD-169 strain; [9]) [µM] | GI50 [2, 10] [µM] | HEL cell effects cell morphology (MDC) (HEL cell [3]) [μM] | GI50 ([4]; p53KO HCT116, four days) [µM] | GI50 [5, 11] [µM] | EC50 (CMV Davis strain; [9]) [µM] | IC50 (HEL cell [6]) [µM] | GI50 [7, 12] [µM] | EC50 (CMV Davis strain; […]) [µM] | further results
1 | 2-[4-(Ferrocenyl)-1,2,3-triazol-1H-yl]inosine [Compound 22] | 29.7 | 120 | 12.9 | 2190 | > 50 | > 50 | 123 | 123 | > 50 |  | anti-CMV activity (in words) (cytomegalovirus (CMV)): marginal activity
2 | O=C1c2ccccc2C(=O)N1Cc1cn(-c2nc(O)c3ncn([C@@H]4O[C@H](CO)[C@@H](O)[C@H]4O)c3n2)nn1 [Compound 21, 2-[4-(N-Phthalimidomethyl)-1,2,3-triazol-1H-yl]inosine] | 6.32 |  | 14.1 | >200 | > 50 | > 50 | > 200 | > 200 | > 50 |  | 
3 | OCc1cn(-c2nc(O)c3ncn([C@@H]4O[C@H](CO)[C@@H](O)[C@H]4O)c3n2)nn1 [Compound 20, 2-[4-(Hydroxymethyl)-1,2,3-triazol-1H-yl]inosine] | 20.4 | > 270 | 3.53 | >270 | 42.6 | > 50 | > 270 |  | > 50 |  | 
4 | OCc1cn(-c2nc(O)c3ncn([C@H]4C[C@H](O)[C@@H](CO)O4)c3n2)nn1 [Compound 27, 2-[4-(Hydroxymethyl)-1,2,3-triazol-1H-yl]-2′-deoxyinosine] | 49.4 |  | 32.9 | >290 | > 50 | > 50 |  |  | > 50 | > 290 | EC50 (CMV AD-169 strain; […]): > 290 µM
5 | OC[C@H]1O[C@@H](n2cnc3c(O)nc(-n4cc(-c5ccccc5)nn4)nc32)C[C@@H]1O [Compound 25, 2-[4-(Phenyl)-1,2,3-triazol-1H-yl]-2′-deoxyinosine] | 31 |  | 14.8 | >250 | > 50 | > 50 |  | 188 | > 50 | 158 | anti-CMV activity (in words) (cytomegalovirus (CMV)): marginal activity
6 | Cc1ccc(-c2cn(-c3nc(O)c4ncn([C@@H]5O[C@H](CO)[C@@H](O)[C@H]5O)c4n3)nn2)cc1 [Compound 18, 2-[4-(4-Methylphenyl)-1,2,3-triazol-1H-yl]inosine] | 38 | 118 | 13.4 | >240 | > 50 | > 50 | 151 |  | > 50 |  | anti-CMV activity (in words) (cytomegalovirus (CMV)): marginal activity
7 | CCCCc1cn(-c2nc(O)c3ncn([C@@H]4O[C@H](CO)[C@@H](O)[C@H]4O)c3n2)nn1 [Compound 23, 2-(4-n-Butyl-1,2,3-triazol-1H-yl)inosine] | 37 | 73 | 28.1 |  | > 50 | > 50 | 39 | > 250 | > 50 |  | anti-CMV activity (in words) (cytomegalovirus (CMV)): somewhat more pronounced; EC50 (cytomegalovirus (CMV); range over the CMV strains, read-out: EC50 against CMV in HEL cells): 39 to 73 µM
8 | O=C1c2ccccc2C(=O)N1Cc1cn(-c2nc(O)c3ncn([C@H]4C[C@H](O)[C@@H](CO)O4)c3n2)nn1 [Compound 28, 2-[4-(N-Phthalimidomethyl)-1,2,3-triazol-1H-yl]-2′-deoxyinosine] | 49.6 |  | 32.2 | >210 | > 50 | > 50 |  |  | > 50 | > 210 | EC50 (CMV AD-169 strain; […]): > 210 µM
9 | CC(=O)O[C@H]1C(=O)[C@@]2(C)[C@H]([C@H](OC(=O)c3ccccc3)[C@]3(O)C[C@H](OC(=O)[C@H](O)[C@@H](NC(=O)c4ccccc4)c4ccccc4)C(C)=C1C3(C)C)[C@]1(OC(C)=O)CO[C@@H]1C[C@@H]2O [paclitaxel, reference compound] |  |  |  |  |  |  |  |  |  |  | GI50 [1]: 0.00151 µM; GI50 [2]: 0.068 µM; GI50 ([5]; PTX10, read-out: GI50 PTX10): 0.079 µM; GI50 ([7]; Homo sapiens, HCT-116, read-out: GI50 HCT116): 0.00685 µM
10 | 2-[4-(Ferrocenyl)-1,2,3-triazol-1H-yl]-2′-deoxyinosine [Compound 29] | 41.6 |  | 18 | >200 | > 50 | > 50 |  | > 200 | > 50 |  | 
11 | CCCCc1cn(-c2nc(O)c3ncn([C@H]4C[C@H](O)[C@@H](CO)O4)c3n2)nn1 [Compound 30, 2-(4-n-Butyl-1,2,3-triazol-1H-yl)-2′-deoxyinosine] | 46.1 |  | 26.9 | >270 | > 50 | > 50 |  |  | > 50 | > 270 | EC50 (CMV AD-169 strain; […]): > 270 µM
12 | OC[C@H]1O[C@@H](n2cnc3c(NCc4ccccc4)nc(-n4cc(-c5ccccc5)nn4)nc32)[C@@H](O)C1O (some centres unmarked) [Compound 35, 6-(N-Benzyl)-2-[4-(phenyl)-1,2,3-triazol-1H-yl]adenosine] |  |  |  | 200 |  |  |  |  |  |  | GI50 ([1]; 96 h): 5 µM; EC50 (CMV AD-169 strain; Human betaherpesvirus 5, AD169, HEL cell cultures, virus input 100 PFU): > 40 µM; cytostatic activity (in words) ([8]; L1210, CEM, HeLa): poorly cytostatic; IC50 ([8]; range over L1210 (48 h), CEM (72 h), HeLa (96 h)): 90 to 120 µM; GI50 ([2]; 96 h): 24.5 µM; GI50 ([4]; Homo sapiens, HCT-116, 96 h): > 50 µM; GI50 ([5]; PTX10, 96 h, read-out: GI50 PTX10): > 50 µM; EC50 (CMV Davis strain; Human betaherpesvirus 5, HEL cell cultures, virus input 100 PFU): > 40 µM; GI50 ([7]; Homo sapiens, HCT-116, 96 h, read-out: GI50 HCT116): 43.6 µM
13 | COc1ccc(-c2cn(-c3nc(O)c4ncn([C@H]5C[C@H](O)[C@@H](CO)O5)c4n3)nn2)cc1 [Compound 26, 2-[4-(4-Methoxyphenyl)-1,2,3-triazol-1H-yl]-2′-deoxyinosine] | 37.2 |  | 15.7 | >240 | > 50 | > 50 |  |  | > 50 | > 240 | EC50 (CMV AD-169 strain; […]): > 240 µM
14 | OC[C@H]1O[C@@H](n2cnc3c(O)nc(-n4cc(-c5ccc(F)cc5)nn4)nc32)[C@H](O)[C@@H]1O [Compound 24, 2-[4-(4-Fluorophenyl)-1,2,3-triazol-1H-yl]inosine] | 34 | > 230 | 31 | >230 | > 50 | > 50 | > 230 |  | > 50 |  | 
15 | COc1ccc(-c2cn(-c3nc(O)c4ncn([C@@H]5O[C@H](CO)[C@@H](O)[C@H]5O)c4n3)nn2)cc1 [Compound 19, 2-[4-(4-Methoxyphenyl)-1,2,3-triazol-1H-yl]inosine] | 29.5 |  | 8.56 | >230 | > 50 | > 50 |  | > 230 | > 50 |  | 
